# Values of other authors in US8071619B2, “Injectable liquid formulation of paracetamol” (priority 2003, dated 2011).
# Settings: aqueous solution; K. T. Koshy et al., 1961
structure (smiles),measurement,value
"CC(=O)Nc1ccc(O)cc1 [paracetamol, N-(4-hydroxy-phenyl)acetamide]",pH at which the rate of degradation of paracetamol is minimal,~6
